Several values for one entry are separate records, joined by “and”; a condition that tells them apart may be missing. Equal values may be shown once.
Columns and labels:
[1] = system: RD (rhabdomyosarcoma) cells; assay: Cytotoxicity, MTT assay, RD cells; assay type: cell-based; settings: Homo sapiens, read-out: IC50, 50% inhibition of the cell population growth, 72 h, mean ± SD
Method: (§1) The cytotoxicity of the newly synthesized Schiff bases was evaluated in vitro in a panel of cultured tumor cells, assessing cell viability at scalar concentrations of the test compounds (≤500 μM) by MTT (i.e., 3-(4,5-dimethylthiazol-2-yl)-2,5-diphenyltetrazolium bromide) and Alamar Blue assays, using doxorubicin as the positive controls. Most of the compounds were tested against RD (rhabdomyosarcoma), HCT116 (intestinal carcinoma), HeLa (adenocarcinoma of the cervix uterus) and A549 (lung adenocarcinoma) cell lines, whereas five representative compounds of the subsets were tested also against K562 (chronic myelogenous leukemia) tumor cells.
(§2) The experiments were carried out in triplicate.

[2] = system: HCT116 (intestinal carcinoma) cells; assay: Cytotoxicity, MTT assay, HCT116 cells; assay type: cell-based; settings: Homo sapiens, HCT-116, read-out: IC50, 50% inhibition of the cell population growth, 72 h, mean ± SD
Method: as §1, §2

[3] = system: HeLa (adenocarcinoma of the cervix uterus) cells; assay: Cytotoxicity, MTT assay, HeLa cells; assay type: cell-based; settings: Homo sapiens, read-out: IC50, 50% inhibition of the cell population growth, 72 h, mean ± SD
Method: as §1, §2

[4] = system: A549 (lung adenocarcinoma) cells; assay: Cytotoxicity, MTT assay, A549 cells; assay type: cell-based; settings: Homo sapiens, read-out: IC50, 50% inhibition of the cell population growth, 72 h, mean ± SD
Method: as §1, §2

[5] = biological target: human acetylcholinesterase (AChE) (Homo sapiens, UniProt P22303); assay: biochemical; settings: for IC50: human recombinant AChE, pH 8.0, mean ± SD (n = 3), read-out: IC50 hAChE; for inhibition mechanism on hAChE: Michaelis-Menten / Lineweaver-Burk plots; for Ki: complete kinetics, human AChE, read-out: inhibition constant (Ki) hAChE; for inhibition at 10 µM: mean ± SD (n = 3), read-out: % inhibition hAChE
Method: (§3) The ChE inhibition assay was carried out using the Ellman’s spectrophotometric method [23], as applied to the 96-well plate technique [24] on a Tecan Infinite M1000 Pro instrument (Cernusco s.N., Italy).

[6] = biological target: T1, human butyrylcholinesterase (BChE) (Homo sapiens, UniProt P06276); assay: BChE inhibition, Ellman's method; assay type: biochemical; settings: mean ± SD (n = 3), n.i. = no inhibition; for inhibition at 10 µM: read-out: % inhibition hBChE; for % inhibition hBChE: at 10 μM
T1 construct: BChE from human serum (50 U/mg); from tissue; host or cells: human serum
Method: as §3

[7] = biological target: T2, β-amyloid (Aβ)1–40 self-aggregation (Homo sapiens, UniProt P05067); assay: Inhibition of self-induced Aβ40 aggregation, thioflavin T fluorescence; assay type: biochemical; settings: for IC50 / inhibition at 100 µM: Aβ40 30 μM, 2% HFIP, ThT, mean ± SD (n = 3); for IC50: PBS pH 7.4, 2 h
T2 construct: self-aggregation of Aβ peptides 1–40 (Aβ40)
Method: Molecules able to inhibit simultaneously AChE and β-amyloid (Aβ) aggregation/neurotoxicity may have potential as drugs for the treatment of AD [14]. Herein, the new DHPPIQ derivatives were evaluated for the inhibitory effects on the self-aggregation of Aβ peptides 1–40 (Aβ40), through a test based on the measurement of thioflavin T (ThT) fluorescence. Quercetin, which is a strong inhibitor of in vitro Aβ self-aggregation, was used as a positive control.
Each compound was initially tested at a 100-μM concentration. […] […].
According to an already reported 96-well plate procedure, the test compounds at 100 μM were incubated with Aβ40 (30 μM) and 2% HFIP (1,1,1,3,3,3-hexafluoro-2-propanol), used as aggregation enhancer in PBS pH 7.4 for 2 h at room temperature. After the addition of ThT, the fluorescence was read at the 440/485 nm excitation/emission wavelength. Experiments were performed in triplicate, and the % inhibition values calculated as mean ± SD.

human MAO A = biological target: T3, human MAO A (Homo sapiens, UniProt P21397); assay: biochemical; settings: human recombinant MAO A, kynuramine, mean ± SD (n = 3); read-out: IC50 hMAO A
T3 construct: host or cells: baculovirus-infected insect cells (microsomes)
T3 sequence (P21397 1-527): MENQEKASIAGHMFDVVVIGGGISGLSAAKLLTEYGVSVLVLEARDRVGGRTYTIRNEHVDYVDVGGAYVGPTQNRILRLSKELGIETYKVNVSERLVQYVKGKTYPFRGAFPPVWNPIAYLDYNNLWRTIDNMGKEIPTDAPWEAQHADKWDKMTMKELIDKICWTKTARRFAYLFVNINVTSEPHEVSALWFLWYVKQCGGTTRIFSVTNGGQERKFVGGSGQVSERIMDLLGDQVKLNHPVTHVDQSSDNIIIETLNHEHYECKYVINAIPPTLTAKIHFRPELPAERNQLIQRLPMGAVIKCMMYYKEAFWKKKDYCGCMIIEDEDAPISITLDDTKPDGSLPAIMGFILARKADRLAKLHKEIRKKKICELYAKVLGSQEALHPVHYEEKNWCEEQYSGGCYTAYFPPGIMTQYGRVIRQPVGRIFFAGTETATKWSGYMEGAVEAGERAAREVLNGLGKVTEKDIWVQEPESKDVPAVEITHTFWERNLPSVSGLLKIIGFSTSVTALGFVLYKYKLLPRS
Method: (§4) The inhibition of human recombinant MAO A (250 U/mg) and B (59 U/mg; microsomes from baculovirus-infected insect cells) was evaluated using the reported 96-well plate technique [12]. on a Tecan Infinite M1000 Pro instrument (Cernusco s.N., Italy). […] After addition of the enzyme and 30 min of incubation, NaOH was added and the fluorescence read at the 310/400 excitation/emission wavelength.

human MAO B = biological target: T4, human MAO B (Homo sapiens, UniProt P27338); assay: biochemical; settings: at 10 μM, mean ± SD (n = 3); read-out: % inhibition hMAO B
T4 construct: host or cells: baculovirus-infected insect cells (microsomes)
T4 sequence (P27338 1-520): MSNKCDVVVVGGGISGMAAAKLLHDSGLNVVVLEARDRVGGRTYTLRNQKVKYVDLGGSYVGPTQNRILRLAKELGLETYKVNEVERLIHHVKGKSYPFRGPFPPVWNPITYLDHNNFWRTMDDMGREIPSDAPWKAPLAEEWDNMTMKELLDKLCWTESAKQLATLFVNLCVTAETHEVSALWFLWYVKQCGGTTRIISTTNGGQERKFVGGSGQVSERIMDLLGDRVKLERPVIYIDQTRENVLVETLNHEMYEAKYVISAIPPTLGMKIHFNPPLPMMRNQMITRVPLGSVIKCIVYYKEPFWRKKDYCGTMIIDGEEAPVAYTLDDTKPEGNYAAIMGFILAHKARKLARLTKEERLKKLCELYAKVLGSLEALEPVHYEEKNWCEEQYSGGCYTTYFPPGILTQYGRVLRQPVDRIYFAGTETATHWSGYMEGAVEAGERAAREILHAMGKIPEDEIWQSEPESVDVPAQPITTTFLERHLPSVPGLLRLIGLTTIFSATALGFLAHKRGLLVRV
Method: as §4

in vitro = settings: human
[8] = system: K562 (chronic myelogenous leukemia) cells; assay: Cytotoxicity, Alamar Blue (resazurin) assay, K562 cells; assay type: cell-based; settings: Homo sapiens, read-out: IC50, 50% inhibition of the cell population growth, 72 h, mean ± SD
Method: as §1, §2

T1 sequence (P06276 29-602): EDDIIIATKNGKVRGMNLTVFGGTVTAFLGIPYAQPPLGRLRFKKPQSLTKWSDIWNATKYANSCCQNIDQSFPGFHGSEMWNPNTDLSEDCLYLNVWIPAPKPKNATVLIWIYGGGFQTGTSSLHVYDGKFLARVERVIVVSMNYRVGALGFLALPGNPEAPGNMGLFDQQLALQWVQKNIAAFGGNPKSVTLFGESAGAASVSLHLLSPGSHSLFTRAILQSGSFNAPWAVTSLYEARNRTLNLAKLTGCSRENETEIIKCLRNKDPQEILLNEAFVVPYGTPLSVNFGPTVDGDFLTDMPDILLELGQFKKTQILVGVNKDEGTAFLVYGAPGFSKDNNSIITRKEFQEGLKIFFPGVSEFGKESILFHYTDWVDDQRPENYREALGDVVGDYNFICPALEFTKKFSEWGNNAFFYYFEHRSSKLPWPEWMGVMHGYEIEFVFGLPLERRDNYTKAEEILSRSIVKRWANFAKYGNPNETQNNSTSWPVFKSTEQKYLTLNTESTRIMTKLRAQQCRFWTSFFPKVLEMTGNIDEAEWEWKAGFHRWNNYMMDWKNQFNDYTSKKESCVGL
T2 sequence (P05067 672-711 limits assumed): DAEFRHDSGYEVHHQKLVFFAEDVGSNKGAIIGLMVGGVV
Sequence of human acetylcholinesterase (AChE) (P22303 32-614): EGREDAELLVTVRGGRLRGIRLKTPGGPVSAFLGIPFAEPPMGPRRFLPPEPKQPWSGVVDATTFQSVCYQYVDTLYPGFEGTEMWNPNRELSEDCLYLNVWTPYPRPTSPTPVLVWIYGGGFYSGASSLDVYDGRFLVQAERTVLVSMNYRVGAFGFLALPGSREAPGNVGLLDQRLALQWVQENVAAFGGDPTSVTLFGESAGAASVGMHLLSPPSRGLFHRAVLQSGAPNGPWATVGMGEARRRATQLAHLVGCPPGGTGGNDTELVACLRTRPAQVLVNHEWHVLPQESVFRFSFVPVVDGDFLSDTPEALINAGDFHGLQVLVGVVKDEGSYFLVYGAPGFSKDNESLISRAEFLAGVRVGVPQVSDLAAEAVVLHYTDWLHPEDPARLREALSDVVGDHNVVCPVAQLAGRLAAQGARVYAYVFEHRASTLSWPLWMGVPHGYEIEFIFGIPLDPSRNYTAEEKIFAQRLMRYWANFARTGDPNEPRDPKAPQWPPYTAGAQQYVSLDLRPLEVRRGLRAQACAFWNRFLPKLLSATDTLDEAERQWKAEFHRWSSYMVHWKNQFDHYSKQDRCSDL

| Compound | IC50 [1] | IC50 [2] | IC50 [3] | IC50 [4] | IC50 [5] | inhibition at 10 µM [6] | IC50 [7] | IC50 (human MAO A) | inhibition at 10 µM (human MAO B) | IC50 at 72 h (in vitro) | hAChE potency relative to the reference compound galantamine ([5]; 14 vs galantamine) | inhibition mechanism on hAChE [5] | Ki [5] | fold stronger inhibition of Aβ40 aggregation than the respective mono-DHPPIQ Schiff base 9 ([7]; ratio of IC50 values, 14 vs 9) | IC50 [8] | % inhibition hBChE [6] | inhibition at 10 µM [5] | inhibition at 100 µM [7] |
| --- | --- | --- | --- | --- | --- | --- | --- | --- | --- | --- | --- | --- | --- | --- | --- | --- | --- | --- |
| CCOc1ccc(-c2c(/C=N/c3ccc(/N=C/c4cn5c(c4-c4ccc(OCC)c(OCC)c4)-c4cc(OCC)c(OCC)cc4CC5)cc3)cn3c2-c2cc(OCC)c(OCC)cc2CC3)cc1OCC [Compound 13a, (1E,1’E)-N,N’-(1,4-phenylene)bis(1-(1-[3,4-diethoxyphenyl]-8,9-diethoxy-5,6-dihydropyrrolo[2,1-a]isoquinolin-2-yl)methanimine)-1,4-diaminium dichloride] | 390 ± 19 µM | 103 ± 8 µM | 205 ± 10 µM | 240 ± 18 µM | 13 µM and 13.1 µM | 11 ± 3% | 42 ± 3 µM | 12.3 ± 1.1 µM | 31 ± 3% | 101 ± 6 µM | – | – | – | – | – | – | – | – |
| COc1cc2c(cc1OC)-c1c(-c3ccc(Cl)cc3)c(/C=N/c3ccc(/N=C/c4cn5c(c4-c4ccc(Cl)cc4)-c4cc(OC)c(OC)cc4CC5)cc3)cn1CC2 [Compound 14, (1E,1’E)-N,N’-(1,4-phenylene)bis(1-(1-[4-chlorophenyl]-8,9-dimethoxy-5,6-dihydropyrrolo[2,1-a]isoquinolin-2-yl)methanimine)] | 269 ± 11 µM | 390 ± 16 µM | 310 ± 12 µM | > 500 µM | 7.3 ± 0.74 µM | 13 ± 1% | 13 ± 1 µM | 12.1 ± 2.3 µM | 19 ± 5% | 29.3 ± 0.1 µM | tenfold less potent | noncompetitive/mixed-type inhibition mechanism | 4.69 µM | 3.5 fold | – | – | – | – |
| COc1cc2c(cc1OC)-c1c(-c3ccc(F)cc3)c(C=O)c(-c3ccccc3)n1CC2 [Compound 6] | 91.1 ± 10.9 µM | 261 ± 13 µM | – | – | – | – | – | – | – | – | – | – | – | – | – | – | – | – |
| CCOc1ccc(-c2c(/C=N/c3ccc(OC)cc3)cn3c2-c2cc(OCC)c(OCC)cc2CC3)cc1OCC [Compound 7, (E)-1-(1-(3,4-diethoxyphenyl)-8,9-diethoxy-5,6-dihydropyrrolo[2,1-a]isoquinolin-2-yl)-N-(4-methoxyphenyl)methanimine] | 132 ± 4 µM | 38.5 ± 6.6 µM | 34.9 ± 1.8 µM | 79.5 ± 6.8 µM | 20.2 ± 3.1 µM | – | 78 ± 5.1 µM | – | – | – | – | – | – | – | 171 ± 12 µM | n.i. | – | – |
| CCOc1ccc(-c2c(/C=N/CCCN(C)C)cn3c2-c2cc(OCC)c(OCC)cc2CC3)cc1OCC.Cl.Cl [Compound 16a, (E)-N^1-((1-[3,4-diethoxyphenyl]-8,9-diethoxy-5,6-dihydropyrrolo[2,1-a]isoquinolin-2-yl)methylene)-N^3,N^3-dimethylpropane-1,3-diaminium chloride] | 72.8 ± 4.6 µM | 60.5 ± 0.7 µM | 63.1 ± 3.1 µM | 85.1 ± 0.2 µM | – | – | – | – | – | – | – | – | – | – | – | n.i. | 32 ± 2% | 48 ± 4% |
| COc1cc2c(cc1OC)-c1c(-c3ccc(Cl)cc3)c(/C=N/c3ccc(/N=C/c4c(-c5ccc(Cl)cc5)c5n(c4-c4ccccc4)CCc4cc(OC)c(OC)cc4-5)cc3)c(-c3ccccc3)n1CC2 [Compound 15a, (1E,1’E)-N,N’-(1,4-phenylene)bis(1-(1-[4-chlorophenyl]-8,9-dimethoxy-3-phenyl-5,6-dihydropyrrolo[2,1-a]isoquinolin-2-yl)methanimine)-1,4-diaminium dichloride] | 149 ± 3 µM | 102 ± 5 µM | 93.4 ± 2.6 µM | 120 ± 3.5 µM | – | – | 50 ± 6.3 µM | – | – | – | – | – | – | – | 251 ± 17 µM | n.i. | 25 ± 3% | – |
| CC[C@@]1(O)C(=O)OCc2c1cc1n(c2=O)Cc2cc3ccccc3nc2-1 [Camptothecin, reference compound] | – | – | – | – | – | – | – | – | – | 0.272 ± 0.01 µM | – | – | – | – | – | – | – | – |
| COc1ccc(/N=C/c2c(-c3ccc(Cl)cc3)c3n(c2-c2ccccc2)CCc2cc(OC)c(OC)cc2-3)cc1 [Compound 10, (E)-1-(1-(4-chlorophenyl)-8,9-dimethoxy-3-phenyl-5,6-dihydropyrrolo[2,1-a]isoquinolin-2-yl)-N-(4-methoxyphenyl)methanimine] | – | 211 ± 9 µM | – | – | – | – | – | – | – | – | – | – | – | – | – | n.i. | 35 ± 7% | 42 ± 5% |
| COc1cccc2c1C(=O)c1c(O)c3c(c(O)c1C2=O)C[C@@](O)(C(=O)CO)C[C@@H]3O[C@H]1C[C@H](N)[C@H](O)[C@H](C)O1 [Doxorubicin, reference compound] | 0.29 ± 0.021 µM | 0.142 ± 0.011 µM | 0.892 ± 0.013 µM | 0.38 ± 0.021 µM | – | – | – | – | – | – | – | – | – | – | 1.75 ± 0.06 µM | – | – | – |
| CCOc1ccc(-c2c(/C=N/CC/N=C/c3cn4c(c3-c3ccc(OCC)c(OCC)c3)-c3cc(OCC)c(OCC)cc3CC4)cn3c2-c2cc(OCC)c(OCC)cc2CC3)cc1OCC [Compound 19, (1E,1’E)-N,N’-(ethane-1,2-diyl)bis(1-(1-(3,4-diethoxyphenyl)-8,9-diethoxy-5,6-dihydropyrrolo[2,1-a]isoquinolin-2-yl)methanimine)] | 65.1 ± 7.3 µM | 401 ± 8 µM | 84 ± 1.3 µM | – | – | – | – | – | – | – | – | – | – | – | 290 ± 12 µM | n.i. | 37 ± 2% | 48 ± 3% |
| COc1cc2c(cc1OC)-c1c(-c3ccc(Cl)cc3)c(C=O)c(-c3ccccc3)n1CC2 [Compound 4] | 163 ± 20 µM | 252 ± 11 µM | 109 ± 5 µM | 105 ± 11 µM | 7.9 ± 0.13 µM | – | – | – | – | – | – | noncompetitive/mixed-type mechanism | 3.58 ± 0.04 µM | – | – | n.i. | – | 35 ± 6% |
| COc1cc2c(cc1OC)-c1c(-c3ccc(Cl)cc3)c(C=O)cn1CC2 [Compound 3] | 17.6 ± 3.2 µM | 22 ± 4 µM | 33 ± 4.5 µM | 38.6 ± 3.2 µM | – | – | 66 ± 2.2 µM | – | – | – | – | – | – | – | – | n.i. | 32 ± 3% | – |
| COc1cc2c(cc1OC)-c1c(-c3ccc(F)cc3)c(C=O)cn1CC2 [Compound 5] | 17.8 ± 0.4 µM | 32.2 ± 0.3 µM | 33.8 ± 1 µM | 41.3 ± 2 µM | – | – | – | – | – | – | – | – | – | – | – | n.i. | 33 ± 4% | – |
